Results: patent US20040259765A1, “Formulations of non-steroidal anti-inflammatory agents to treat pathologic ocular angiogenesis” (priority 2003, published 2004)

Tested on: retinal neovascularization
Test: rat pup model of retinopathy of prematurity (oxygen-induced retinopathy)
Assay type: in vivo
Settings: local administration, FIG. 1
Protocol: FIG. 1. […] Anecortave acetate was tested for its angiostatic efficacy in a rat pup model of retinopathy of prematurity (Penn, at al., Investigative Ophthalmology & Visual Science, “The Effect of an Angiostatic Steroid on Neovascularization in a Rat Model of Retinopathy of Prematurity,” Vol. 42(1):283-290, January 2001). Newborn rat pups were placed in an atmosphere of varying oxygen content. The rats received a single intravitreal injection of vehicle or anecortave acetate (500 μg) upon return to room air (day 14) or 2 days later (day 16). There was significant retinal neovascularization in the rats that received vehicle injections.

CC(=O)OCC(=O)[C@@]1(O)CC[C@H]2[C@@H]3CCC4=CC(=O)CC[C@]4(C)C3=CC[C@@]21C [Anecortave acetate, 4,9(11)-pregnadien-17α,21-diol-3,20dione-21-acetate] was tested, and the “preretinal neovascularization (neovascular score)” value was “inhibits”.
